# Measurements published in patent US20260217701A1, “SELECTIVE BET INHIBITORS AND USES THEREOF” (Tay Therapeutics Limited, priority 2022, published 2026).
# Several values for one entry are separate records, joined by “and”; a condition that tells them apart may be missing. Equal entries are not always repeated.
# Tested on: collagen-induced arthritis
# Assay: Collagen-induced arthritis (CIA) model: clinical scores and paw volume; on Animal paw volume percent change (%): reference of the scale not given here; on Average animal paw volume percent change (%): reference of the scale not given here
# Type: in vivo, Lewis rats
# Details: for Overall Clinical Score: individual animals 1-8; for Animal paw volume / Animal paw volume percent change (%): individual animals
# [1] = Day 15, CIA + Compound A 3 mg/kg
# [2] = Day 15, CIA + Compound A 10 mg/kg
# [3] = Day 18, L paw, group 5 CIA + Compound A 1 mg/kg
# [4] = Day 18, L paw, group 6 CIA + Compound A 3 mg/kg
# [5] = Day 18, L paw, group 7 CIA + Compound A 10 mg/kg
# [6] = Day 18, R paw, group 5 CIA + Compound A 1 mg/kg
# [7] = Day 18, R paw, group 6 CIA + Compound A 3 mg/kg
# [8] = Day 18, R paw, group 7 CIA + Compound A 10 mg/kg
# [9] = Day 18, CIA + Compound A 1 mg/kg
# [10] = Day 18, CIA + Compound A 3 mg/kg
# [11] = Day 18, CIA + Compound A 10 mg/kg
# [12] = Day 19, L paw, group 5 CIA + Compound A 1 mg/kg
# [13] = Day 19, L paw, group 6 CIA + Compound A 3 mg/kg
# [14] = Day 19, L paw, group 7 CIA + Compound A 10 mg/kg
# [15] = Day 19, R paw, group 5 CIA + Compound A 1 mg/kg
# [16] = Day 19, R paw, group 6 CIA + Compound A 3 mg/kg
# [17] = Day 19, R paw, group 7 CIA + Compound A 10 mg/kg
# [18] = Day 19, CIA + Compound A 1 mg/kg
# [19] = Day 19, CIA + Compound A 3 mg/kg
# [20] = Day 21, L paw, group 5 CIA + Compound A 1 mg/kg
# [21] = Day 21, L paw, group 6 CIA + Compound A 3 mg/kg
# [22] = Day 21, L paw, group 7 CIA + Compound A 10 mg/kg
# [23] = Day 21, R paw, group 5 CIA + Compound A 1 mg/kg
smiles,measurement,setting,value
"Cn1cc(-c2ccccc2)c(-c2cn(C)c(=O)c3[nH]c(-c4cnn(C(F)(F)F)c4)cc23)cc1=O [Compound A, 6-methyl-4-(1-methyl-2-oxo-5-phenyl-1,2-dihydropyridin-4-yl)-2-(1-(trifluoromethyl)-1H-pyrazol-4-yl)-1,6-dihydro-7H-pyrrolo[2,3-c]pyridin-7-one]","Average detailed clinical score, score",[1],1
same,Average overall clinical score,[1],1
same,Overall Clinical Score,"Day 15, CIA + Compound A 3 mg/kg, 3 mg/kg",0 (2×) and 1
same,"Average detailed clinical score, left forelimb",[2],0
same,"Average detailed clinical score, left hind limb",[2],0.75
same,"Average detailed clinical score, right forelimb",[2],0
same,"Average detailed clinical score, right hind limb",[2],0.5
same,"Average detailed clinical score, score",[2],1.25
same,Average overall clinical score,[2],1
same,Animal paw volume,"Day 15, L paw, Group 5 (CIA + Compound A 1 mg/kg), 1 mg/kg",1.45 mL and 1.84 mL and 1.77 mL and 1.64 mL and 1.48 mL and 1.66 mL and 1.92 mL
same,Animal paw volume,"Day 15, L paw, Group 6 (CIA + Compound A 3 mg/kg), 3 mg/kg",1.49 mL (2×) and 1.59 mL and 1.48 mL and 1.54 mL and 1.68 mL
same,Animal paw volume,"Day 15, R paw, Group 5 (CIA + Compound A 1 mg/kg), 1 mg/kg",1.42 mL and 1.81 mL and 1.56 mL and 1.65 mL and 1.50 mL and 1.72 mL and 1.59 mL
same,Animal paw volume,"Day 15, R paw, Group 6 (CIA + Compound A 3 mg/kg), 3 mg/kg",1.39 mL and 1.41 mL and 1.46 mL and 1.42 mL and 1.75 mL and 1.57 mL
same,Average animal paw volume,[3],1.98 mL
same,Average animal paw volume percent change (%),[3],49.46%
same,Average animal paw volume,[4],1.64 mL
same,Average animal paw volume percent change (%),[4],24.36%
same,Average animal paw volume,[5],1.61 mL
same,Average animal paw volume percent change (%),[5],22.68%
same,Animal paw volume percent change (%),"Day 18, L paw, group 5 CIA + Compound A 1 mg/kg, 1 mg/kg",55.17% and 87.60% and 51.66% and 66.42% and 24.72% and 52.08% and 52.83%
same,Animal paw volume percent change (%),"Day 18, L paw, group 6 CIA + Compound A 3 mg/kg, 3 mg/kg",29.66% and 54.47% and 6.08% and 10.26% and 18.39% and 23.97%
same,Average animal paw volume,[6],1.91 mL
same,Average animal paw volume percent change (%),[6],44.06%
same,Average animal paw volume,[7],1.78 mL
same,Average animal paw volume percent change (%),[7],35.37%
same,Average animal paw volume,[8],1.76 mL
same,Average animal paw volume percent change (%),[8],34.04%
same,Animal paw volume percent change (%),"Day 18, R paw, group 5 CIA + Compound A 1 mg/kg, 1 mg/kg",59.00% and 89.96% and 33.45% and 53.58% and 18.45% and 55.13% and 36.98%
same,Animal paw volume percent change (%),"Day 18, R paw, group 6 CIA + Compound A 3 mg/kg, 3 mg/kg",61.13% and 22.57% and 44.15% and 30.48% and 50.58% and 23.22%
same,"Average detailed clinical score, left forelimb",[9],0.50
same,"Average detailed clinical score, left hind limb",[9],3.88
same,"Average detailed clinical score, right forelimb",[9],0.50
same,"Average detailed clinical score, right hind limb",[9],3.88
same,"Average detailed clinical score, score",[9],8.75
same,Average overall clinical score,[9],4
same,Overall Clinical Score,"Day 18, CIA + Compound A 1 mg/kg, 1 mg/kg",0 and 5 (3×) and 7 and 6 and 2 and 4
same,"Average detailed clinical score, left forelimb",[10],0.00
same,"Average detailed clinical score, left hind limb",[10],2.50
same,"Average detailed clinical score, right forelimb",[10],0.88
same,"Average detailed clinical score, right hind limb",[10],2.25
same,"Average detailed clinical score, score",[10],5.63
same,Average overall clinical score,[10],3
same,Overall Clinical Score,"Day 18, CIA + Compound A 3 mg/kg, 3 mg/kg",4 and 3 and 2
same,"Average detailed clinical score, left forelimb",[11],0.00
same,"Average detailed clinical score, left hind limb",[11],1.13
same,"Average detailed clinical score, right forelimb",[11],0.00
same,Average overall clinical score,[11],3
same,Animal paw volume,"Day 18, L paw, Group 5 (CIA + Compound A 1 mg/kg), 1 mg/kg",2.03 mL (2×) and 2.42 mL and 2.06 mL and 2.21 mL and 1.67 mL and 2.02 mL
same,Animal paw volume,"Day 18, L paw, Group 6 (CIA + Compound A 3 mg/kg), 3 mg/kg",1.71 mL and 1.99 mL and 1.40 mL and 1.51 mL and 1.55 mL and 1.66 mL
same,Animal paw volume,"Day 18, R paw, Group 5 (CIA + Compound A 1 mg/kg), 1 mg/kg",2.08 mL and 2.46 mL and 1.84 mL and 2.04 mL (2×) and 1.61 mL and 1.82 mL
same,Animal paw volume,"Day 18, R paw, Group 6 (CIA + Compound A 3 mg/kg), 3 mg/kg",2.14 mL and 1.58 mL and 1.91 mL and 1.76 mL and 1.95 mL and 1.65 mL
same,Average animal paw volume,[12],1.97 mL
same,Average animal paw volume percent change (%),[12],49.19%
same,Average animal paw volume,[13],1.70 mL
same,Average animal paw volume percent change (%),[13],29.54%
same,Average animal paw volume,[14],1.66 mL
same,Average animal paw volume percent change (%),[14],26.62%
same,Animal paw volume percent change (%),"Day 19, L paw, group 5 CIA + Compound A 1 mg/kg, 1 mg/kg",55.17% and 87.60% and 49.82% and 69.06% and 22.47% and 52.08% and 53.58%
same,Animal paw volume percent change (%),"Day 19, L paw, group 6 CIA + Compound A 3 mg/kg, 3 mg/kg",43.35% and 54.47% and 22.81% and 10.99% and 29.12%
same,Average animal paw volume,[15],1.92 mL
same,Average animal paw volume percent change (%),[15],44.50%
same,Average animal paw volume,[16],1.78 mL
same,Average animal paw volume percent change (%),[16],35.81%
same,Average animal paw volume,[17],1.75 mL
same,Average animal paw volume percent change (%),[17],33.14%
same,Animal paw volume percent change (%),"Day 19, R paw, group 5 CIA + Compound A 1 mg/kg, 1 mg/kg",68.20% and 87.26% and 33.45% and 54.34% and 17.71% and 54.75% and 35.85%
same,Animal paw volume percent change (%),"Day 19, R paw, group 6 CIA + Compound A 3 mg/kg, 3 mg/kg",61.89% and 25.68% and 43.02% and 29.74% and 52.90%
same,"Average detailed clinical score, left forelimb",[18],1.13
same,"Average detailed clinical score, left hind limb",[18],4.00
same,"Average detailed clinical score, right forelimb",[18],1.00
same,"Average detailed clinical score, right hind limb",[18],3.75
same,"Average detailed clinical score, score",[18],9.88
same,Average overall clinical score,[18],5
same,Overall Clinical Score,"Day 19, CIA + Compound A 1 mg/kg, 1 mg/kg",0 and 6 (5×) and 8 and 3
same,"Average detailed clinical score, left forelimb",[19],0.00
same,"Average detailed clinical score, left hind limb",[19],2.38
same,"Average detailed clinical score, right forelimb",[19],1.13
same,"Average detailed clinical score, right hind limb",[19],2.88
same,"Average detailed clinical score, score",[19],6.38
same,Average overall clinical score,[19],4
same,Overall Clinical Score,"Day 19, CIA + Compound A 3 mg/kg, 3 mg/kg",5 and 4 (2×)
same,Average overall clinical score,"Day 19, CIA + Compound A 10 mg/kg",4
same,Animal paw volume,"Day 19, L paw, Group 5 (CIA + Compound A 1 mg/kg), 1 mg/kg",2.03 mL (2×) and 2.42 mL and 2.24 mL and 1.64 mL and 2.02 mL and 2.04 mL
same,Animal paw volume,"Day 19, L paw, Group 6 (CIA + Compound A 3 mg/kg), 3 mg/kg",1.89 mL and 1.99 mL and 1.62 mL and 1.52 mL and 1.69 mL
same,Animal paw volume,"Day 19, R paw, Group 5 (CIA + Compound A 1 mg/kg), 1 mg/kg",2.20 mL and 2.43 mL and 1.84 mL and 2.05 mL and 1.60 mL and 2.04 mL and 1.80 mL
same,Animal paw volume,"Day 19, R paw, Group 6 (CIA + Compound A 3 mg/kg), 3 mg/kg",2.15 mL and 1.62 mL and 1.90 mL and 1.75 mL and 1.98 mL
same,Average animal paw volume,[20],2.01 mL
same,Average animal paw volume percent change (%),[20],52.06%
same,Average animal paw volume,[21],1.73 mL
same,Average animal paw volume percent change (%),[21],31.54%
same,Average animal paw volume,[22],1.72 mL
same,Average animal paw volume percent change (%),[22],31.20%
same,Animal paw volume percent change (%),"Day 21, L paw, group 5 CIA + Compound A 1 mg/kg, 1 mg/kg",56.70% and 89.53% and 53.14% and 70.94% and 22.47% and 56.60% and 61.89%
same,Animal paw volume percent change (%),"Day 21, L paw, group 6 CIA + Compound A 3 mg/kg, 3 mg/kg",46.01% and 70.04% and 24.33% and 10.99% and 37.55%
same,Average animal paw volume,[23],2.01 mL
same,Average animal paw volume percent change (%),[23],51.46%
same,Average animal paw volume,"Day 21, R paw, group 6 CIA + Compound A 3 mg/kg",1.82 mL
